From the CheMixHub ionic liquid set

Assay: xn = mol fraction of the nth substance listed

CCC[N+]1(C)CCCCC1.O=S(=O)([N-]S(=O)(=O)C(F)(F)F)C(F)(F)F + CCC[N+](C)(C)C.O=S(=O)([N-]S(=O)(=O)C(F)(F)F)C(F)(F)F
101.3 kPa, x2 = 0
Details	viscosity [mPa·s]
293.15 K	199
298.15 K	147
303.15 K	112
313.15 K	69
338.15 K	26.6
343.15 K	22.9

CCCCCCCC[n+]1ccc2ccccc2c1.O=S(=O)([N-]S(=O)(=O)C(F)(F)F)C(F)(F)F + c1ccccc1
101 kPa
Details	viscosity [mPa·s]
298.15 K, x2 = 0	369
298.15 K, x2 = 0.4679	67
298.15 K, x2 = 0.673	10.93
298.15 K, x2 = 0.7443	5.93
308.15 K, x2 = 0.4679	40.99
318.15 K, x2 = 0	108.7
318.15 K, x2 = 0.332	47.7
318.15 K, x2 = 0.5663	16.93
328.15 K, x2 = 0.1505	50.4
328.15 K, x2 = 0.332	31.8
328.15 K, x2 = 0.673	4.75
338.15 K, x2 = 0.673	3.83
338.15 K, x2 = 0.8143	1.48
348.15 K, x2 = 0.332	16.29
348.15 K, x2 = 0.654	4.92
348.15 K, x2 = 0.8961	0.49

O=S(=O)([O-])C(F)(F)F.[Li+] + CC[n+]1ccn(C)c1.O=S(=O)([O-])C(F)(F)F
electrical conductivity [S/m], 101 kPa
Details	x1 = 0.007746	x1 = 0.01537	x2 = 0.9697	x2 = 0.9746
288.15 K	0.625	0.568	–	0.535
298.15 K	0.904	0.837	0.775	0.792
333.15 K	2.31	2.14	2.02	2.05

CC[n+]1ccn(C)c1.O=S(=O)([O-])C(F)(F)F + CS(C)=O
100 kPa
Details	viscosity [mPa·s]
298.15 K, x1 = 0.1068	3.7
298.15 K, x1 = 0.3077	7.9
318.15 K, x1 = 0.4023	7
323.15 K, x1 = 0.4933	8.2

Oc1cccnc1 + CCCC[n+]1ccn(C)c1.[Cl-]
Details	viscosity [mPa·s]
293.15 K, 100 kPa, x1 = 0.333	179.1

CCCCCCCCCCCCCC[P+](CCCCCC)(CCCCCC)CCCCCC.N#C[N-]C#N + CCCCCCCCCCCC
101 kPa
Details	viscosity [mPa·s]
303.15 K, x1 = 1	328
308.15 K, x1 = 0.5534	90
313.15 K, x1 = 0.736	112
323.15 K, x1 = 0.5534	47.4
323.15 K, x1 = 0.736	72.7
323.15 K, x1 = 1	123
328.15 K, x1 = 0.5534	39.2
328.15 K, x1 = 0.736	60
343.15 K, x1 = 0.5534	24.2
353.15 K, x1 = 1	41

CCCCCCCC[n+]1ccc2ccccc2c1.O=S(=O)([N-]S(=O)(=O)C(F)(F)F)C(F)(F)F + c1ccsc1
101 kPa
Details	viscosity [mPa·s]
298.15 K, x2 = 0.542	42.73
298.15 K, x2 = 0.821	7.64
308.15 K, x2 = 0.0964	158.7
308.15 K, x2 = 0.542	27.8
308.15 K, x2 = 0.6385	16.12
308.15 K, x2 = 0.821	6.02
308.15 K, x2 = 0.9065	2.78
318.15 K, x2 = 0	108.7
318.15 K, x2 = 0.0964	92.2
318.15 K, x2 = 0.2739	54.7
318.15 K, x2 = 0.9065	2.36
338.15 K, x2 = 0.3572	20.4
348.15 K, x2 = 0.4456	11.37

CCCCCCCCCCCCCC[P+](CCCCCC)(CCCCCC)CCCCCC.N#C[N-]C#N + COCCOCCOCCOCCOC
viscosity [mPa·s], 100 kPa
Details	278.15 K	283.15 K	288.15 K	293.15 K	298.15 K	303.15 K	308.15 K	313.15 K	318.15 K	323.15 K
x2 = 0	1750	1210	842	603	442	331	253	196	155	124
x2 = 0.099	1130	794	566	413	308	234	182	143	115	93
x2 = 0.203	708	508	370	275	209	162	128	103	83	69
x2 = 0.299	479	348	258	195	151	119	96	78	64	54
x2 = 0.501	160	122	95	75	61	–	–	–	–	–
x2 = 0.652	73	57	–	–	–	–	–	–	–	–

CC[n+]1ccn(C)c1.O=S(=O)([O-])C(F)(F)F + CN(C)C=O
100 kPa
Details	viscosity [mPa·s]
298.15 K, x2 = 0.1933	28.54
303.15 K, x2 = 0.406	12.55
308.15 K, x2 = 0.406	10.91
313.15 K, x2 = 0.5976	4.5
313.15 K, x2 = 0.7981	2.03
318.15 K, x2 = 0.0917	19.61
318.15 K, x2 = 0.1933	15.46
318.15 K, x2 = 0.2995	11.68
318.15 K, x2 = 0.6947	2.6
323.15 K, x2 = 0.6947	2.42

N[C@@H](CO)C(=O)O + CCCC[n+]1ccn(C)c1.[Br-] + O
viscosity [mPa·s], 101.3 kPa
Details	x1 = 0.0003603, x2 = 0	x1 = 0.0007203, x2 = 0	x1 = 0.001078, x2 = 0	x1 = 0.00144, x2 = 0	x1 = 0.001781, x2 = 0	x1 = 0.002158, x2 = 0	x1 = 0.002516, x2 = 0
293.15 K	1.007	1.012	1.018	1.023	1.028	1.033	1.039
298.15 K	0.897	0.902	0.907	0.911	0.916	0.92	0.925
303.15 K	0.804	0.809	0.813	0.818	0.822	0.827	0.831
308.15 K	0.727	0.73	0.735	0.739	0.744	0.748	0.753
313.15 K	0.661	0.664	0.668	0.673	0.677	0.682	0.686

CC[NH+](C)CC.CS(=O)(=O)[O-] + O + CC[NH+](C)CC.O=S(=O)([O-])C(F)(F)F
101 kPa, x2 = 0.121, x3 = 0
Details	viscosity [mPa·s]
313.15 K	46.5
333.15 K	21.6
353.15 K	12.05
